Consider five compounds from US7659298B2, “Pyrazole derivatives and use thereof as orexin receptor antagonists” (sanofi-aventis, priority 2003, dated 2010).

In general, IC50 refers to the point on the concentration scale where inhibition reaches its midpoint. What is called melting point is the temperature of the solid-liquid transition.

Where no end group is shown, it is not given here.

For one data set, the system named is orexin-1 receptors. The conditions noted are these: cited from earlier work.
Data set [1] concerns the target T1, human recombinant orexin-2 (hr-OX-2) receptor (Homo sapiens, UniProt O43614).
T1 construct: expressed in transfected cells; host or cells: CHO cells (CHO-hr-OX-2), purified plasma membrane fraction
T1 sequence (O43614 1-444): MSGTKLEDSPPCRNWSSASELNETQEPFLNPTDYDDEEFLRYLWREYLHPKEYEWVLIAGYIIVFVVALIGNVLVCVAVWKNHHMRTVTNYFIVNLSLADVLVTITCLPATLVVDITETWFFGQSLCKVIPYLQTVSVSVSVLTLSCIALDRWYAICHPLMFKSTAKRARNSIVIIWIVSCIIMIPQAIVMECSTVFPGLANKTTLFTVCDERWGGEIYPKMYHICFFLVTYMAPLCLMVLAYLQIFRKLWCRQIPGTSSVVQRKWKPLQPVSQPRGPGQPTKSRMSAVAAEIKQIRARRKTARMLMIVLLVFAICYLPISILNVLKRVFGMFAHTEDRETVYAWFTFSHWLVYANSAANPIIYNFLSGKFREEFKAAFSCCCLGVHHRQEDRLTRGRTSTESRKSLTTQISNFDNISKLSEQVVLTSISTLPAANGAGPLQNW
The experiment in a line: hr-125I-orexin-A radioligand competition binding, orexin-2 receptor. To be noted: read-out: Orex-2 IC50. The protocol:
(§1) In vitro radioligand binding assays were used for determination of the affinities of the compounds for both the orexin-1 and orexin-2 receptors.
(§2) In the frame of hr-^125I-orexin-A radioligand competition (displacement) experiments a fixed concentration of hr-^125I-orexin-A is incubated with increasing concentrations of unlabeled test compound in the presence of highly purified plasmamembranes bearing either the human recombinant orexin-1 (hr-OX-1) or the human recombinant orexin-2 (hr-OX-2) receptors. Specific binding of hr-^125I-orexin-A to plasmamembranes is measured at each concentrations of the unlabeled compound and thus a competition curve is generated. The concentration of unlabeled compound displacing 50% of specific binding (IC50) is calculated. In case of competitive interaction the binding affinity constant of the unlabeled compound (KI) is calculated according to the Cheng-Prusoff equation ([…]. Affinity of unlabeled compound for the receptor is equal to 1/KI.
(§3) Culturing the Chinese hamster ovarian cells expressing human recombinant orexin-1 or orexin-2 receptor proteins (CHO-hr-OX-1 or CHO-hr-OX-2 cells) was carried out in cell culture medium (MEM medium, supplemented with 40 mg/l prolin, 20 mg/l gentamycin, 300 mg/l geneticin, 10% dialysed fetal calf serum).
(§4) Adherent cells were plated into Greiner flasks (175 cm^2). 4-6 days later culture medium was removed and cells were scarped in calcium- and magnesium-free phosphate buffered saline (PBS, 20 ml/flask). The cell suspension was centrifuged at 1,000 g for 5 minutes (4° C.). The resulting pellet was resuspended and homogenized with a teflon pestle (4° C.), then layered onto a discontinous sucrose gradient and centrifuged at 105,000 g. […]
(§5) Serial dilution series were prepared from stock solutions (100% DMSO) with binding assay buffer in such a way that each samples contained a final concentration of 1% of DMSO in the receptor binding reaction mixture. […] The radioactivity remained on the filter was counted in a gamma counter (Wallac Automatic Gamma Counter 1470 Wizard).
Background: Loss of bound radioactivity is the signal in a displacement assay; it reports binding, not function.

The target of data set [2] is T2, human recombinant orexin-1 (hr-OX-1) receptor (Homo sapiens, UniProt O43613).
T2 construct: expressed in transfected cells; host or cells: CHO cells (CHO-hr-OX-1), purified plasma membrane fraction
T2 sequence (O43613 1-425): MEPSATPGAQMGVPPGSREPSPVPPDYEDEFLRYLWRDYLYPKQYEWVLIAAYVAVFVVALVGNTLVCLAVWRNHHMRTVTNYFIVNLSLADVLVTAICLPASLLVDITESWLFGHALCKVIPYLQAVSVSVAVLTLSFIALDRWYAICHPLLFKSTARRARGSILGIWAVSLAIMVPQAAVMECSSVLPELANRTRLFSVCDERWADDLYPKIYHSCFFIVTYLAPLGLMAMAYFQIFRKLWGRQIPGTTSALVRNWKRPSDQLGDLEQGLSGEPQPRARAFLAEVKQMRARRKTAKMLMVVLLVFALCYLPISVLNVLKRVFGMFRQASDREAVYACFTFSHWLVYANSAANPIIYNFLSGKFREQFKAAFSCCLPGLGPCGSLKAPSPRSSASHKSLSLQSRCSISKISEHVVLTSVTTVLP
The experiment in a line: hr-125I-orexin-A radioligand competition binding, orexin-1 receptor. The conditions noted are these: read-out: Orex-1 IC50. Here is the method:
as §1, §2, §3, §4, §5

Regarding “orexin A: "Orexin A consists of 33 aminoacid residues with two intramolecular disulphide bridges" (QPLPDCCRQKTCSCRLYELLHGAGNHAAGILTL; disulfide (positions not given here); ends not checked; UniProt O43612 34-66, looked up)”, the “fold more effective on the orexin-1 receptors compared to orexin B” value with orexin-1 receptors is on record as 10-50 fold.

As for `Cn1nc(-c2ccncc2)c(COc2ccccc2C(=O)Nc2cnc3ccccc3c2)c1Cl` [2-(5-Chloro-1-methyl-3-pyridin-4-yl-1H-pyrazol-4-ylmethoxy)-N-quinolin-3-ylbenzamide], the half-inhibitory concentration (IC50) in data set [1] amounted to 1100 nM; in data set [2], 51 nM.

Regarding `Cn1nc(-c2ccccc2)c(CSc2ccccc2C(=O)Nc2ccc3ccccc3c2)c1Cl`, the IC50 in data set [1] turned out to be 156 nM; in data set [2] it was 33 nM.

For `Cn1nc(-c2ccccc2)c(COc2ccccc2C(=O)Nc2cnc3ccccc3c2)c1Cl` [Example 65, 2-(3-Phenyl-5-chloro-1-methyl-1H-pyrazol-4-ylmethoxy)-N-quinolin-3-ylbenzamide], the melting point came to 170 °C.

Take `Cn1nc(-c2cccnc2)c(CCc2ccccc2C(=O)Nc2cnc3ccccc3c2)c1Cl` [2-[2-(5-Chloro-1-methyl-3-pyridin-3-yl-1H-pyrazol-4-yl)ethyl]-N-quinolin-3-ylbenzamide]: the IC50 in data set [1] was found to be 680 nM; in data set [2], 57 nM.
